According to patent publication US6355799B1, “Substituted benzene compounds, process for their preparation, and herbicidal and defoliant compositions containing them” (ISK Americas Incorporated, priority 1997, dated 2002):

What was measured:
Type in all cases: in vivo
[1] = test system: redroot pigweed (Amaranthus retroflexus, AMARE); test: Pre-emerge test, greenhouse herbicide activity screening; details: pre-emerge, 14 days after application, rating scale 0-100
How it was run: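 Herbicidal damage is scored 0 (none) to 100 (complete plant death) two weeks after a simulated field spray. Rates span 15–1000 g ai/ha, delivered in acetone at 187 l/ha. For post-emergence treatments, plants have 2–3 leaves and the spray carries 0.25% v/v non-ionic surfactant.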

[2] = test system: green foxtail (Setaria viridis, SETVI); test: as above; details: pre-emerge, 14 days after application, rating scale 0-100
How it was run: (§1)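 Fourteen days after spraying, crop and weed injury was graded visually from 0, no effect, to 100, every plant dead. Test substances were dissolved in acetone and applied at 15–1000 g ai/ha with a flat-fan nozzle. Application was either pre-emergence, one day after sowing, or post-emergence at the 2–3 leaf stage.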

[3] = test system: lambsquarters (Chenopodium album, CHEAL); test: as above; details: pre-emerge, 14 days after application, rating scale 0-100
How it was run: as §1

[4] = test system: ivyleaf morningglory (Ipomoea hederacea, IPOHE); test: as above; details: pre-emerge, 14 days after application, rating scale 0-100
How it was run: as §1

[5] = test system: large crabgrass (Digitaria sanguinalis, DIGSA); test: as above; details: pre-emerge, 14 days after application, rating scale 0-100
How it was run: as §1

[6] = test system: barnyardgrass (Echinochloa crus-galli, ECHCG); test: as above; details: pre-emerge, 14 days after application, rating scale 0-100
How it was run: as §1

[7] = test system: cocklebur (Xanthium strumarium, XANST); test: as above; details: 14 days after application, rating scale 0-100
[8] = test system: johnsongrass (Sorghum halepense, SORHA); test: as above; details: pre-emerge, 14 days after application, rating scale 0-100
How it was run: as §1

[9] = test system: sicklepod (Cassia obtusifolia, CASOB); test: as above; details: pre-emerge, 14 days after application, rating scale 0-100
How it was run: as §1

[10] = test system: velvetleaf (Abutilon theophrasti, ABUTH); test: as above; details: pre-emerge, 14 days after application, rating scale 0-100
How it was run: as §1

[11] = test system: upland rice (Oryza sp., var. Tebonnet, RICE); test: Pre-emerge test, crop safety; details: pre-emerge, 14 days after application, rating scale 0-100
How it was run: (§2)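 Compounds in acetone were track-sprayed at 187 l/ha, 15–1000 g ai/ha, onto sandy loam pots. Pre-emerge seeds were sown one day before spraying, with surface watering afterwards. Post-emerge plants were at the 2–3 leaf stage and sprayed with 0.25% v/v non-ionic surfactant. Injury was rated 0–100 at 14 days.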

[12] = test system: field corn (Zea mays L., var. Dekalb 535, CORN); test: Pre-emerge test, crop safety; details: pre-emerge, 14 days after application, rating scale 0-100
How it was run: as §2

## O=c1cc(C(F)(F)F)[nH]c(=O)n1-c1c(Cl)cc(C(F)(F)F)cc1Cl [compound 2, reference compound]
[1]; 3.9 g ai/ha
  phytotoxicity rating AMARE: 0
[1]; 7.8 g ai/ha
  phytotoxicity rating AMARE: 0
[1]; 15.6 g ai/ha
  phytotoxicity rating AMARE: 0
[1]; 31.3 g ai/ha
  phytotoxicity rating AMARE: 0
[1]; 62.5 g ai/ha
  phytotoxicity rating AMARE: 0
[1]; 125 g ai/ha
  phytotoxicity rating AMARE: 0
[1]; 250 g ai/ha
  phytotoxicity rating AMARE: 0
[2]; 3.9 g ai/ha
  phytotoxicity rating SETVI: 0
[2]; 7.8 g ai/ha
  phytotoxicity rating SETVI: 0
[2]; 15.6 g ai/ha
  phytotoxicity rating SETVI: 0
[2]; 31.3 g ai/ha
  phytotoxicity rating SETVI: 0
[2]; 62.5 g ai/ha
  phytotoxicity rating SETVI: 0
[2]; 125 g ai/ha
  phytotoxicity rating SETVI: 0
[2]; 250 g ai/ha
  phytotoxicity rating SETVI: 0
[3]; 3.9 g ai/ha
  phytotoxicity rating CHEAL: 0
[3]; 7.8 g ai/ha
  phytotoxicity rating CHEAL: 0
[3]; 15.6 g ai/ha
  phytotoxicity rating CHEAL: 0
[3]; 31.3 g ai/ha
  phytotoxicity rating CHEAL: 0
[3]; 62.5 g ai/ha
  phytotoxicity rating CHEAL: 0
[3]; 125 g ai/ha
  phytotoxicity rating CHEAL: 30
[3]; 250 g ai/ha
  phytotoxicity rating CHEAL: 50
[4]; 3.9 g ai/ha
  phytotoxicity rating IPOHE: 0
[4]; 7.8 g ai/ha
  phytotoxicity rating IPOHE: 0
[4]; 15.6 g ai/ha
  phytotoxicity rating IPOHE: 0
[4]; 31.3 g ai/ha
  phytotoxicity rating IPOHE: 0
[4]; 62.5 g ai/ha
  phytotoxicity rating IPOHE: 0
[4]; 125 g ai/ha
  phytotoxicity rating IPOHE: 0
[4]; 250 g ai/ha
  phytotoxicity rating IPOHE: 0
[5]; 3.9 g ai/ha
  phytotoxicity rating DIGSA: 0
[5]; 7.8 g ai/ha
  phytotoxicity rating DIGSA: 0
[5]; 15.6 g ai/ha
  phytotoxicity rating DIGSA: 0
[5]; 31.3 g ai/ha
  phytotoxicity rating DIGSA: 0
[5]; 62.5 g ai/ha
  phytotoxicity rating DIGSA: 0
[5]; 125 g ai/ha
  phytotoxicity rating DIGSA: 0
[5]; 250 g ai/ha
  phytotoxicity rating DIGSA: 0
[6]; 3.9 g ai/ha
  phytotoxicity rating ECHCG: 0
[6]; 7.8 g ai/ha
  phytotoxicity rating ECHCG: 0
[6]; 15.6 g ai/ha
  phytotoxicity rating ECHCG: 0
[6]; 31.3 g ai/ha
  phytotoxicity rating ECHCG: 0
[6]; 62.5 g ai/ha
  phytotoxicity rating ECHCG: 0
[6]; 125 g ai/ha
  phytotoxicity rating ECHCG: 0
[6]; 250 g ai/ha
  phytotoxicity rating ECHCG: 0
[7]; 3.9 g ai/ha
  phytotoxicity rating XANST: 0
[7]; 7.8 g ai/ha
  phytotoxicity rating XANST: 0
[7]; 15.6 g ai/ha
  phytotoxicity rating XANST: 0
[7]; 31.3 g ai/ha
  phytotoxicity rating XANST: 0
[7]; 62.5 g ai/ha
  phytotoxicity rating XANST: 0
[7]; 125 g ai/ha
  phytotoxicity rating XANST: 0
[7]; 250 g ai/ha
  phytotoxicity rating XANST: 60
[8]; 3.9 g ai/ha
  phytotoxicity rating SORHA: 0
[8]; 7.8 g ai/ha
  phytotoxicity rating SORHA: 0
[8]; 15.6 g ai/ha
  phytotoxicity rating SORHA: 0
[8]; 31.3 g ai/ha
  phytotoxicity rating SORHA: 0
[8]; 62.5 g ai/ha
  phytotoxicity rating SORHA: 0
[8]; 125 g ai/ha
  phytotoxicity rating SORHA: 0
[8]; 250 g ai/ha
  phytotoxicity rating SORHA: 0
[9]; 3.9 g ai/ha
  phytotoxicity rating CASOB: 0
[9]; 7.8 g ai/ha
  phytotoxicity rating CASOB: 0
[9]; 15.6 g ai/ha
  phytotoxicity rating CASOB: 0
[9]; 31.3 g ai/ha
  phytotoxicity rating CASOB: 0
[9]; 62.5 g ai/ha
  phytotoxicity rating CASOB: 0
[9]; 125 g ai/ha
  phytotoxicity rating CASOB: 30
[9]; 250 g ai/ha
  phytotoxicity rating CASOB: 50
[10]; 3.9 g ai/ha
  phytotoxicity rating ABUTH: 0
[10]; 7.8 g ai/ha
  phytotoxicity rating ABUTH: 0
[10]; 15.6 g ai/ha
  phytotoxicity rating ABUTH: 0
[10]; 31.3 g ai/ha
  phytotoxicity rating ABUTH: 0
[10]; 62.5 g ai/ha
  phytotoxicity rating ABUTH: 0
[10]; 125 g ai/ha
  phytotoxicity rating ABUTH: 0
[10]; 250 g ai/ha
  phytotoxicity rating ABUTH: 50
[11]; 3.9 g ai/ha
  phytotoxicity rating RICE: 0
[11]; 7.8 g ai/ha
  phytotoxicity rating RICE: 0
[11]; 15.6 g ai/ha
  phytotoxicity rating RICE: 0
[11]; 31.3 g ai/ha
  phytotoxicity rating RICE: 0
[11]; 62.5 g ai/ha
  phytotoxicity rating RICE: 0
[11]; 125 g ai/ha
  phytotoxicity rating RICE: 0
[11]; 250 g ai/ha
  phytotoxicity rating RICE: 15
[12]; 3.9 g ai/ha
  phytotoxicity rating MAIZE: 0
[12]; 7.8 g ai/ha
  phytotoxicity rating MAIZE: 0
[12]; 15.6 g ai/ha
  phytotoxicity rating MAIZE: 0
[12]; 31.3 g ai/ha
  phytotoxicity rating MAIZE: 0
[12]; 62.5 g ai/ha
  phytotoxicity rating MAIZE: 0
[12]; 125 g ai/ha
  phytotoxicity rating MAIZE: 0
[12]; 250 g ai/ha
  phytotoxicity rating MAIZE: 0
